Reference: article PMC5097879 (European journal of medicinal chemistry, 2016)
Counter-ions that a name gives are not always drawn. Like-named read-outs stand apart in the source and are kept apart here.

Tests used:
[1] = biological target: LS α4β2-nAChR (Homo sapiens, UniProt P17787+P43681); settings: relative to carbamylcholine; ref [8], [9]; cited from earlier work
[2] = biological target: T1, HS α4β2-nAChR (Homo sapiens, UniProt P17787+P43681); settings: relative to carbamylcholine; ref [8], [9]; cited from earlier work
[3] = biological target: human α4β2-nAChRs (mixture of HS and LS) (Homo sapiens, UniProt P17787+P43681); settings: SH-EP1-hα4β2 cells; ref [8], [9]; cited from earlier work
[4] = ref [12]; cited from earlier work
[5] = biological target: α7 subtype; settings: read-out: Ki α7 subtype; ref [15], [16]; cited from earlier work
[6] = tested on: high sensitivity (HS) α4β2-nAChR; settings: oocytes expressing human nAChRs; ref [15], [16]; cited from earlier work
[7] = biological target: T1, HS α4β2-nAChR; assay: 86Rb+ ion efflux assay, efficacy at HS α4β2; type: cell-based; settings: relative to full agonist carbamylcholine; ± SEM
[8] = tested on: mice; assay: SmartCube behavioral platform; type: in vivo, mouse; settings: 15 min preinjection; for SmartCube behavioral signature, extent of effect: 5 and 10 mg/kg i.p.; for SmartCube behavioral signature, 10 mg/kg compared to 5 mg/kg: i.p.
[9] = tested on: mice; assay: Mouse forced swim test; type: in vivo; settings: BALB/cJ mice, 6-min test, P < 0.05
[10] = biological target: α4β2* endogenous receptors prepared from rat forebrain (Rattus norvegicus, UniProt P09483+P12390); assay: [3H]epibatidine binding competition, α4β2*; settings: versus the N-H analogue
[11] = biological target: rat α4β2 nAChR (Rattus norvegicus, UniProt P09483+P12390); type: binding; settings: versus the N-H analogue
[12] = tested on: β2-nAChRs; assay: [3H]epibatidine binding competition, β2-nAChRs overall; set-up: species or system rat; settings: versus parent compound 8

c1cnc2cc3c(cc2n1)[C@@H]1CNC[C@H]3C1 [Compound 1, varenicline]
Agonism LS-α4β2 Efficacy [1]: 34 ± 3.3% | Agonism HS-α4β2 Efficacy [2]: 106 ± 5.9% | Inactivation Efficacy [3]: 83 ± 1.0%

Clc1ccc(OC[C@H]2CCN2)cn1 [Compound 5]
stability in the presence of HCl or TFA following exposure to water [4]: dimerize to compound 6

c1cncc(N2CCCNCC2)c1 [Compound 7, 1-(pyridin-3-yl)-1,4-diazepane]
Ki [5]: 136 nM | efficacy relative to acetylcholine at HS α4β2-nAChR [6]: 41%

COCC[C@H]1C[C@@H]1c1cncc(N2CCCNCC2)c1 [Compound 21, 1-[5-[(1S,2R)-2-(2-Methoxyethyl)cyclopropyl]pyridin-3-yl]-1,4-diazepane trifluoroacetate]
Agonism HS-α4β2 Efficacy [7]: 58–81% | SmartCube behavioral signature, extent of effect [8]: most prominent effects | SmartCube behavioral signature, 10 mg/kg compared to 5 mg/kg [8]: fairly similar behavioral signature | total immobility time compared to control group (water) ([9]; acute PO 1 mg/kg): significantly decreased | total immobility time compared to control group (water) ([9]; acute PO 10 mg/kg): significantly decreased

COCC[C@H]1C[C@@H]1c1cncc(N2CCCN(C)CC2)c1 [Compound 22, 1-[5-[(1S,2R)-2-(2-methoxyethyl)cyclopropyl]pyridin-3-yl]-4-methyl-1,4-diazepane trifluoroacetate]
drop in binding affinity at α4β2* caused by N-methyl group [10]: more than 10 fold | drop in binding affinity at α4β2 caused by N-methyl group [11]: more than 10 fold

COCC[C@H]1C[C@@H]1c1cncc(N2C[C@@H]3C[C@H]2CN3)c1 [Compound 23, (1S,4S)-2-[5-[(1S,2R)-2-(2-methoxyethyl)cyclopropyl]pyridin-3-yl]-2,5-diazabicyclo[2.2.1]heptane]
decline in binding affinities at β2-nAChRs [12]: ≥ 6 fold

COCC[C@@H]1C[C@H]1c1cncc(N2CCCNCC2)c1 [Compound 25, 1-[5-[(1R,2S)-2-(2-methoxyethyl)cyclopropyl]pyridin-3-yl]-1,4-diazepane]
Agonism HS-α4β2 Efficacy [7]: 58–81% | SmartCube behavioral signature, extent of effect [8]: most prominent effects | SmartCube behavioral signature, 10 mg/kg compared to 5 mg/kg [8]: marked increase

COCC[C@@H]1C[C@H]1c1cncc(N2C[C@@H]3C[C@H]2CN3)c1 [Compound 26, (1S,4S)-2-[5-[R,2S)-(2-(2-methoxyethyl)cyclopropyl]pyridin-3-yl]-2,5-diazabicyclo[2.2.1]heptane]
decline in binding affinities at β2-nAChRs [12]: ≥ 6 fold

OCCc1cc(-c2cncc(N3CCCNCC3)c2)on1 [Compound 30]
Agonism HS-α4β2 Efficacy [7]: 58–81% | SmartCube behavioral signature, extent of effect [8]: most prominent effects | SmartCube behavioral signature, 10 mg/kg compared to 5 mg/kg [8]: marked increase
